Test results as given in the supplement of paper PMC10307832.

Compound: NCC(=O)Nc1ccc(-n2nc(C(F)(F)F)cc2-c2ccc3c(ccc4ccccc43)c2)cc1 + CS(=O)(=O)N1CCN(Cc2cc3nc(-c4cccc5[nH]ncc45)nc(N4CCOCC4)c3s2)CC1 [Pictilisib] (partner 1 µM)
Assay: relative viability (nuclei count vs DMSO), 5 days (fraction); higher = more cells survive
Details: first compound 0.06325 µM
Procedure, shortened: (§1)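 Lung cancer cell lines, seeded in 1536-well plates, were treated the following day by pin tool with a single drug or with five library-drug doses (not always all listed) in √10 steps on top of a fixed anchor-drug dose. Cells were fixed and nuclei stained in one step after 5 days, and nuclei were counted. Relative viability is the nuclei count for treated wells divided by that for vehicle wells, reported as medians of duplicate plates.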

Cell Line	relative viability
NCI-H2405	0.494
HOP-62	0.577
A549	0.495
LU99A	0.36
BEN	0.581
HARA	0.355
HCC-78	0.245
NCI-H322M	0.515
LCLC-97TM1	0.215
NCI-H2009	0.906
A-427	0.726
NCI-H441	0.441
NCI-H661	0.389
NCI-H1734	0.462
NCI-H460	0.409
NCI-H2347	0.668
SK-LU-1	0.604
NCI-H1395	0.641

Cell Line	relative viability
201T	0.655
NCI-H1915	1.05
HCC-827	1.15
LXF-289	0.583
NCI-H23	0.511
NCI-H647	0.479
NCI-H1651	0.591
EPLC-272H	0.378
NCI-H1355	0.491
NCI-H3122	0.592
NCI-H1437	0.411
NCI-H1755	0.487
NCI-H2023	0.232
HCC-15	0.773
NCI-H1793	0.401
PC-14	0.702
EKVX	0.493
LC-2-ad	0.503

Same assay, conditions: first compound 0.2 µM

Cell Line	relative viability
NCI-H2405	0.499
HOP-62	0.68
A549	0.564
LU99A	0.321
BEN	0.55
HARA	0.486
HCC-78	0.216
NCI-H322M	0.521
NCI-H2009	0.819
A-427	0.744
NCI-H441	0.469
NCI-H661	0.357
NCI-H1734	0.464
NCI-H460	0.343
NCI-H2347	0.706
SK-LU-1	0.581
NCI-H1395	0.581
201T	0.68

Cell Line	relative viability
NCI-H1915	0.922
HCC-827	1.05
LXF-289	0.762
NCI-H23	0.557
NCI-H647	0.548
NCI-H1651	0.592
EPLC-272H	0.285
NCI-H1355	0.339
NCI-H3122	0.532
NCI-H1437	0.421
NCI-H1755	0.454
NCI-H2023	0.201
HCC-15	0.8
NCI-H1793	0.343
PC-14	0.704
EKVX	0.466
LC-2-ad	0.377

Same assay, conditions: first compound 0.6325 µM

Cell Line	relative viability
NCI-H2405	0.375
HOP-62	0.752
A549	0.565
LU99A	0.311
BEN	0.547
HARA	0.568
HCC-78	0.205
NCI-H322M	0.523
LCLC-97TM1	0.178
NCI-H2009	0.86
A-427	0.739
NCI-H441	0.366
NCI-H661	0.325
NCI-H1734	0.43
NCI-H460	0.382
NCI-H2347	0.738
SK-LU-1	0.479
NCI-H1395	0.563

Cell Line	relative viability
201T	0.734
NCI-H1915	0.914
HCC-827	0.79
LXF-289	0.753
NCI-H23	0.489
NCI-H647	0.406
NCI-H1651	0.467
EPLC-272H	0.344
NCI-H1355	0.411
NCI-H3122	0.571
NCI-H1437	0.523
NCI-H1755	0.435
NCI-H2023	0.207
HCC-15	0.747
NCI-H1793	0.455
PC-14	0.67
EKVX	0.45
LC-2-ad	0.453

Same assay, conditions: first compound 2 µM

Cell Line	relative viability
NCI-H2405	0.481
HOP-62	0.623
A549	0.517
LU99A	0.294
BEN	0.576
HARA	0.559
HCC-78	0.203
NCI-H322M	0.483
LCLC-97TM1	0.187
NCI-H2009	0.967
A-427	0.815
NCI-H441	0.575
NCI-H661	0.407
NCI-H1734	0.474
NCI-H460	0.203
NCI-H2347	0.711
SK-LU-1	0.623
NCI-H1395	0.642

Cell Line	relative viability
201T	0.687
NCI-H1915	0.999
HCC-827	0.896
LXF-289	0.798
NCI-H23	0.424
NCI-H647	0.496
NCI-H1651	0.513
EPLC-272H	0.319
NCI-H1355	0.552
NCI-H3122	0.628
NCI-H1437	0.456
NCI-H1755	0.479
NCI-H2023	0.242
HCC-15	0.743
NCI-H1793	0.349
PC-14	0.62
EKVX	0.531
LC-2-ad	0.403

Compound: NCC(=O)Nc1ccc(-n2nc(C(F)(F)F)cc2-c2ccc3c(ccc4ccccc43)c2)cc1 + Nc1ncn([C@H]2C[C@H](O)[C@@H](CO)O2)c(=O)n1 [Decitabine] (partner 2 µM)
Assay: as above
Details: first compound 0.02 µM
Procedure, shortened: as §1

Cell Line	relative viability
NCI-H2405	0.686
HOP-62	0.214
A549	0.263
LU99A	0.817
BEN	0.69
HARA	0.581
HCC-78	0.788
NCI-H322M	0.723
LCLC-97TM1	0.237
NCI-H2009	0.337
A-427	0.502
NCI-H441	0.274
NCI-H661	0.507
NCI-H1734	0.545
NCI-H460	0.486
NCI-H2347	0.661
SK-LU-1	0.6
NCI-H1395	0.667

Cell Line	relative viability
201T	0.838
NCI-H1915	0.272
HCC-827	0.315
LXF-289	0.376
NCI-H23	0.32
NCI-H647	0.44
NCI-H1651	0.594
EPLC-272H	0.382
NCI-H1355	0.371
NCI-H3122	0.445
NCI-H1437	0.563
NCI-H1755	0.692
NCI-H2023	0.229
HCC-15	0.623
NCI-H1793	0.518
PC-14	0.259
EKVX	0.365
LC-2-ad	0.808

Same assay, conditions: first compound 0.06325 µM

Cell Line	relative viability
NCI-H2405	0.759
HOP-62	0.228
A549	0.249
LU99A	0.987
BEN	0.669
HARA	0.611
HCC-78	0.763
NCI-H322M	0.732
LCLC-97TM1	0.24
NCI-H2009	0.457
A-427	0.544
NCI-H441	0.276
NCI-H661	0.592
NCI-H1734	0.497
NCI-H460	0.525
NCI-H2347	0.599
SK-LU-1	0.658
NCI-H1395	0.735

Cell Line	relative viability
201T	0.846
NCI-H1915	0.275
HCC-827	0.212
LXF-289	0.388
NCI-H23	0.357
NCI-H647	0.436
NCI-H1651	0.351
EPLC-272H	0.35
NCI-H1355	0.362
NCI-H3122	0.418
NCI-H1437	0.576
NCI-H1755	0.739
NCI-H2023	0.211
HCC-15	0.659
NCI-H1793	0.459
PC-14	0.236
EKVX	0.368
LC-2-ad	0.779

Same assay, conditions: first compound 0.2 µM

Cell Line	relative viability
NCI-H2405	0.837
HOP-62	0.225
A549	0.2
LU99A	0.838
BEN	0.7
HARA	0.537
HCC-78	0.698
NCI-H322M	0.716
LCLC-97TM1	0.252
NCI-H2009	0.409
A-427	0.583
NCI-H441	0.225
NCI-H661	0.524
NCI-H1734	0.488
NCI-H460	0.478
NCI-H2347	0.74
SK-LU-1	0.734
NCI-H1395	0.673

Cell Line	relative viability
201T	0.901
NCI-H1915	0.276
HCC-827	0.31
LXF-289	0.371
NCI-H23	0.317
NCI-H647	0.423
NCI-H1651	0.591
EPLC-272H	0.331
NCI-H1355	0.403
NCI-H3122	0.495
NCI-H1437	0.634
NCI-H1755	0.686
NCI-H2023	0.23
HCC-15	0.677
NCI-H1793	0.549
PC-14	0.209
EKVX	0.369
LC-2-ad	0.831

Same assay, conditions: first compound 0.6325 µM

Cell Line	relative viability
NCI-H2405	0.723
HOP-62	0.206
A549	0.257
LU99A	0.843
BEN	0.709
HARA	0.654
HCC-78	0.675
NCI-H322M	0.637
LCLC-97TM1	0.19
NCI-H2009	0.349
A-427	0.545
NCI-H441	0.266
NCI-H661	0.579
NCI-H1734	0.485
NCI-H460	0.479
NCI-H2347	0.615
SK-LU-1	0.615
NCI-H1395	0.692

Cell Line	relative viability
201T	0.87
NCI-H1915	0.262
HCC-827	0.309
LXF-289	0.416
NCI-H23	0.311
NCI-H647	0.436
NCI-H1651	0.619
EPLC-272H	0.423
NCI-H1355	0.408
NCI-H3122	0.448
NCI-H1437	0.616
NCI-H1755	0.701
NCI-H2023	0.209
HCC-15	0.67
NCI-H1793	0.494
PC-14	0.258
EKVX	0.393
LC-2-ad	0.789

Same assay, conditions: first compound 2 µM

Cell Line	relative viability
NCI-H2405	0.754
HOP-62	0.192
A549	0.31
LU99A	0.91
BEN	0.77
HARA	0.528
HCC-78	0.658
NCI-H322M	0.724
LCLC-97TM1	0.221
NCI-H2009	0.408
A-427	0.57
NCI-H441	0.248
NCI-H661	0.572
NCI-H1734	0.534
NCI-H460	0.366
NCI-H2347	0.599
SK-LU-1	0.633
NCI-H1395	0.738

Cell Line	relative viability
201T	0.846
NCI-H1915	0.256
HCC-827	0.335
LXF-289	0.333
NCI-H23	0.324
NCI-H647	0.301
NCI-H1651	0.613
EPLC-272H	0.372
NCI-H1355	0.347
NCI-H3122	0.435
NCI-H1437	0.547
NCI-H1755	0.727
NCI-H2023	0.219
HCC-15	0.654
NCI-H1793	0.487
PC-14	0.23
EKVX	0.361
LC-2-ad	0.774
